The values below come from ChEMBL document CHEMBL3832037, “DailyMed|setid=7FCE939E-C38E-497F-BA3F-E7B6BA44BFD9 | SIMVASTATIN - simvastatin tablet, film coated|Contract Pharmacy Services-PA”.

Where “and” joins values, the source holds several entries; their conditions need not be identical. Equal values may be shown once.

For data set [1], the system named is Homo sapiens. Briefly: Effect of co-administered drugs on the AUC and Cmax for Simvastatin, and its active metabolite Simvastatin acid. The geometric mean AUC and Cmax ratio (Ratio: with/without co-administered drug) for Simvastatin acid following single dose co-administration of Simvastatin with different drugs. In kind it is ADME, organism-based. To be noted: in vivo, po, dosed compound id 2, dosed compound name SIMVASTATIN, regimen Single dose, tissue Plasma.

Data set [2] has as its system Homo sapiens. Briefly: Effect of the co-administered drugs on the AUC and Cmax of simvastatin and simvastatin acid. The geometric mean AUC and Cmax ratio (Ratio: with/without co-administered drug) for simvastatin and simvastatin acid following multpile dose co-administration of simvastatin with different drugs. In kind it is ADME, organism-based. As to conditions: in vivo, po, dose 20 mg, dosed compound id 2, dosed compound name SIMVASTATIN, regimen Every 24h, tissue Plasma.

[3] abbreviates: dose 20 mg, interact cpd dose 2 g.
[4] abbreviates: dose 20 mg, interact cpd dose 237 mL, inter cpd dosed level low, inter cpd dos duration 3 days.
The mark [5] stands for this setting: dose 40 mg, interact cpd dose 600 mg, inter cpd dos duration 3 days.
The mark [6] stands for this setting: dose 60 mg, interact cpd dose 200 mL, inter cpd dosed level high, inter cpd dos duration 2 days.
The mark [7] stands for this setting: dose 80 mg, interact cpd dose 10 mg, inter cpd dos duration 10 days.
Setting [8] is: dose 80 mg, interact cpd dose 120 mg, inter cpd dos duration 10 days.
Where [9] appears, read: dose 80 mg, interact cpd dose 160 mg, inter cpd dos duration 14 days, study dosing duration 7 days.
Where [10] appears, read: dose 80 mg, interact cpd dose 200 mg, inter cpd dos duration 4 days.
Where [11] appears, read: dose 80 mg, interact cpd dose 240 mg, inter cpd dos duration 3 days.

With `CCC(C)(C)C(=O)O[C@H]1C[C@@H](C)C=C2C=C[C@H](C)[C@H](CC[C@@H]3C[C@@H](O)CC(=O)O3)[C@H]21` [SIMVASTATIN], the “Ratio AUC” value is recorded as 1.4 in the data set with Homo sapiens [1] (setting [3]); 1.9 with Homo sapiens [1] (setting [4]); 1.35 in the data set with Homo sapiens [1] (setting [5]); 16 in the data set on Homo sapiens [1] (setting [6]); 1.77 in the data set with Homo sapiens [1] (setting [7]); 3.1 with Homo sapiens [1] (setting [8]). Moreover, the “Ratio AUC” value is recorded as 0.89 with Homo sapiens [1] (setting [9]); 8.9 in the data set with Homo sapiens [1] (setting [10]); 2.5 with Homo sapiens [1] (dose 80 mg, interact cpd dose 240 mg, inter cpd dos duration 7 days); 6 in the data set on Homo sapiens [2] (interact cpd dose 1250 mg, inter cpd dos duration 14 days, study dosing duration 28 days). The “Ratio Cmax” value in the data set with Homo sapiens [1] (setting [3]) is 1.08; in the data set on Homo sapiens [1] (setting [5]), 0.91; in the data set with Homo sapiens [1] (setting [7]), 1.47; in the data set with Homo sapiens [1] (setting [8]) it was 2.88; in the data set with Homo sapiens [1] (setting [9]), 0.83; with Homo sapiens [1] (setting [10]), 5.3 and 13.1. Also, the “Ratio Cmax” value came out at 2.1 with Homo sapiens [1] (setting [11]) and 6.2 in the data set with Homo sapiens [2] (interact cpd dose 200 mg, inter cpd dos duration 4 days).

As for `CCC(C)(C)C(=O)O[C@H]1C[C@@H](C)C=C2C=C[C@H](C)[C@H](CC[C@@H](O)C[C@@H](O)CC(=O)O)[C@H]21` [TENIVASTATIN], the “Ratio AUC” value in the data set on Homo sapiens [1] (setting [3]) came to 1.6; in the data set with Homo sapiens [1] (setting [4]), 1.3; with Homo sapiens [1] (setting [5]), 2.85; in the data set on Homo sapiens [1] (setting [7]), 1.58; in the data set with Homo sapiens [1] (setting [8]), 2.69; in the data set with Homo sapiens [1] (setting [9]) it was 0.64. The “Ratio AUC” value with Homo sapiens [1] (setting [10]) was 12; with Homo sapiens [1] (setting [11]), 2.3. For the same compound, the “Ratio Cmax” value with Homo sapiens [1] (setting [3]) is on record as 1.84; in the data set with Homo sapiens [1] (setting [5]) it was 2.18; with Homo sapiens [1] (setting [6]), 7; in the data set on Homo sapiens [1] (setting [7]), 1.56; in the data set with Homo sapiens [1] (setting [8]), 2.69; in the data set on Homo sapiens [1] (setting [9]), 0.89. For the same compound, the “Ratio Cmax” value was 15 and 13.1 in the data set with Homo sapiens [1] (setting [10]); 2.4 in the data set on Homo sapiens [1] (setting [11]).
